Here are results for eleven substances from publication PMC6212398, “Competing protein-protein interactions regulate binding of Hsp27 to its client protein tau” (Nature Communications, 2018).

Data set [1] deals with K18 tau. Kind of data set: 15N K18 HSQC / TROSY-HSQC NMR with unlabeled Hsp27 constructs. The class given is binding, human. Conditions: 50 µM 15N K18, 100 µM Hsp27 construct (2:1), 10 °C, TROSY titration. On the procedure:
For ^15N K18 HSQC NMR experiments, all proteins were dialyzed overnight into NMR buffer (25 mM HEPES pH 7.4, 10 mM KCl, 5 mM MgCl2, 1 mM TCEP, 10% (v/v) D2O). Then, samples containing 50 μM ^15N-labeled tau and 50 or 100 μM unlabeled chaperone in NMR buffer were prepared. 2D HSQC spectra were acquired at 10 °C on a Bruker Avance AV800 spectrometer equipped with a cryoprobe. 16 scans were acquired per t1 value and spectral widths of 2100 Hz and 10,416 Hz were used in the ^1H and ^15N dimensions, respectively. Spectra were processed using rNMR and Sparky based on deposited tau assignments (Barre 2013, BioMagResBank accession number 19253). Signal intensity ratios were calculated using Prism, by dividing the intensity of chaperone-bound peaks by intensity of the same peak in the unbound spectra.
The ^15N TROSY HSQC experiments were performed on a Bruker Avance 800 MHz spectrometer equipped with the TXO cryogenic probe at 283 K. The [U-^15N] K18 proteins were dissolved at a concentration of 0.05–0.15 mM in 25 mM Hepes, 10 mM KCl, 5 mM MgCl2, 1 mM TCEP at pH 7.0 and titrated with the Hsp27 proteins in the same buffer. The ^1H–^15N TROSY HSQC experiments were performed with 2048 direct (^1H) and 512 indirect (^15N) points with the spectral width of 16 ppm and 36 ppm, respectively. All NMR spectra were processed by Topspin 3.1, and analyzed with Sparky (Goddard and Kneller, SPARKY 3-NMR Assignment and Integration Software. University of California, San Francisco, CA).

The subject of another data set is 0N4R tau. The data set can be described thus: Tau aggregation assay (thioflavin T fluorescence), 0N4R. Type of data set: biochemical, human. Conditions: 10 μM tau, chaperone 1:1 molar ratio (10 μM), heparin 44 µg/mL, 37 °C, Dulbecco's PBS pH 7.4. On the procedure:
(§1) Aggregation assays were performed as previously described. Briefly, all proteins were dialyzed overnight at 4 °C into assay buffer (Dulbecco’s PBS pH7.4, 2 mM MgCl2, 1 mM DTT). 0N4R or K18 Tau (10 μM) was pre-incubated in the presence/absence of chaperones (5–20 μM) for 30 min at 37 °C. Thioflavin T (Sigma) at a final concentration of 10 μM was added and aggregation was induced by the addition of a freshly prepared heparin sodium salt solution (Santa Cruz) at a final concentration of 44 µg/mL. For non-induced controls, assay buffer was added in place of heparin solution. The aggregation reaction was carried out at 37 °C with continuous shaking and monitored via Thioflavin T fluorescence (excitation = 444 nm, emission = 485 nm, cutoff = 480 nm) in a Spectramax M5 microplate reader (Molecular Devices). Readings were taken every 5 min for a minimum of 24 h. Baseline curves of non-induced controls (three replicates) were subtracted from induced samples (three replicates).

A short description of data set [2]: Thermal shift assay (differential scanning fluorimetry). Type of data set: physicochemical. Particulars: DSF, 0.3 mg/mL in 50 mM NaPi pH 7.4, 700 mM NaCl, 50 mM LiCl, SYPRO Orange. As to the method:
Samples of Hsp27 (25 µL; 0.3 mg/mL) in DSF buffer (50 mM NaPi pH 7.4, 700 mM NaCl, 50 mM LiCl) with a 5× final concentration of SYPRO Orange (Sigma) were placed into a white 96-well plate with optically clear caps. Melt curves were acquired on a Stratagene Mx300P RT-PCR using the SYPRO filter set. Samples were heated from 25 to 95 °C in 1 °C increments for 2 min, cooled to 25 °C at each cycle, and fluorescence was measured. The melting temperature was determined using a Boltzmann fit in Prism.
(Differential scanning fluorimetry follows unfolding on heating by fluorescence.)

In another data set the test system is BAG3. The data set can be described thus: Interaction of Hsp27 ACD with BAG3 by FCPIA. Type of data set: binding. Particulars: Supplementary Figure 4.
The target in data set [3] is T1, Hsp27 ACD (Homo sapiens, UniProt P04792).
T1 construct: Hsp27 ACD (residues Q80–S176); made in house; host or cells: E. coli BL21 (DE3)
T1 sequence (P04792 80-176): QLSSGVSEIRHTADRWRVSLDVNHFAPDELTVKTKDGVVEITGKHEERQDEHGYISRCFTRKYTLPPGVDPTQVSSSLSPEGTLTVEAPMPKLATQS
The data set can be described thus: ITC of IPV-derived peptides with purified Hsp27 ACD. Type of data set: binding. Conditions: Fig. 1d, 25 °C, one-site model; for N (binding stoichiometry): peptide (1 mM) into Hsp27 ACD (100 µM). As to the method:
(§2) For experiments with BAG3, proteins were dialyzed overnight against ITC buffer (25 mM Hepes, 5 mM MgCl2, 100 mM KCl, pH 7.5). For experiments with peptides, sHSPs were dialyzed overnight against SEC buffer, and peptides were dissolved in dialysis buffer. Concentrations were determined using BCA assays (Thermo Scientific), and the ITC experiment was performed with a MicroCal ITC200 (GE Healthcare) at 25 °C. In BAG3 experiments, sHSP (200 µM) in the syringe was titrated into a 10 μM cell solution of BAG3 protein. For peptide binding experiments, peptide (1 mM) was titrated into a cell containing Hsp27 proteins (100 µM). Calorimetric parameters were calculated using Origin® 7.0 software and fit with a one-site binding model.

Data set [4] has as its target T1, Hsp27 ACD. Kind of data set: NMR titration of VQIVYK peptide into 1H-15N Hsp27 ACD. The class given is binding. Particulars: 1H-15N ACD spectra, 3.3-fold molar excess of peptide (500 µM), Supplementary Figure 3D.
Data set [5] relates to K18 tau. The data set can be described thus: Tau aggregation assay (thioflavin T fluorescence), K18. Type of data set: biochemical, human. Conditions: 10 μM tau, chaperone 1:1 molar ratio (10 μM), heparin 44 µg/mL, 37 °C, Dulbecco's PBS pH 7.4. As to the method: as §1
In the next data set the target is T2, Hsp27 WT (Homo sapiens, UniProt P04792).
T2 construct: Vectors for the expression of full-length human Hsp27; made in house; host or cells: E. coli BL21 (DE3)
T2 sequence (P04792 whole entry): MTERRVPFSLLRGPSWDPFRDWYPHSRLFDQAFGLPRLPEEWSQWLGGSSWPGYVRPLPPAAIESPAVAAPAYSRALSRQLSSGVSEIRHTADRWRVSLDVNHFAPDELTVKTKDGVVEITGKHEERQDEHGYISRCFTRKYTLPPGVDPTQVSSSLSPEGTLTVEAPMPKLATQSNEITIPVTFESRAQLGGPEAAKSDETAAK
The data set can be described thus: ITC of optimized IPV peptide with Hsp27 WT. Conditions: Fig. 4b, peptide (1 mM) into full-length Hsp27 WT (100 µM), 25 °C, mean ± SEM, minimum of three independent experiments. Type of data set: binding. As to the method:
as §2

The next data set addresses T3, ΔNTD GPG (Homo sapiens, UniProt P04792, I181G/V183G).
T3 construct: For all other Hsp27 constructs (GPG, ΔNTD consisting of residues 80–205); inferred from the PMCSG7 vector and Ni-NTA purification) (N); made in house; host or cells: E. coli BL21 (DE3)
Kind of data set: ITC of optimized IPV peptide with Hsp27 ΔNTD GPG. Type of data set: binding. Particulars: Fig. 4b, peptide (1 mM) into ΔNTD GPG (100 µM), 25 °C, mean ± SEM, minimum of three independent experiments. As to the method:
as §2

A further data set deals with T4, Hsp27 3D (Homo sapiens, UniProt P04792, S15D/S78D/S82D).
T4 construct: Sample aggregation curves of tau constructs with full-length Hsp27; made in house; host or cells: E. coli BL21 (DE3)
T4 sequence (P04792 whole entry S15D/S78D/S82D): as the sequence (P04792 whole entry) above, with S15D, S78D, S82D counted along it
Kind of data set: ITC of optimized IPV peptide with Hsp27 3D. The class given is binding. Conditions: Fig. 4b, peptide (1 mM) into Hsp27 3D (100 µM), 25 °C, mean ± SEM, minimum of three independent experiments. As to the method: as §2

For data set [6], the system named is K18 tau. The data set can be described thus: Competitive ELISA on immobilized K18 tau saturated with biotin-labelled Hsc70. More on the design: species or system human. Particulars: Supplementary Figure 3A, binding not saturable, read-out: IC50 (estimated), competition with biotin-labelled Hsc70 for immobilized K18 tau. The text has this: B. Hsp27 ACD binding to K18tau cannot be measured by ITC
A. Hsp27 ACD has a weak affinity for tau,by ELISA
C. The interaction is also estimated tobe weak by NMR titration[Competitor], uM
D. NMR titration of VQIVYK peptide into
Supplementary Figure 3. Hsp27 ACD has a weak affinity for K18 tau. (A) K18 tau was immobilized onto ELISA plates and saturated with biotin-labelled, human Hsc70, which shares binding sites with Hsp27 ACD in the MTBRs. Competition with unlabelled Hsc70 (control) or Hsp27 ACD was then carried out. Hsp27 ACD was estimated to have an IC50 > 100 µM. (B) Binding of Hsp27 ACD to K18 tau was not able to be measured by ITC, due to solubility limits. (C) NMR titrations (see Figure S5A) also […]
interaction. CSPs of Hsp27 ACD in the presence of 3.3-fold molar excess of PHF6* peptide (500 µM).
(also on this page, place not known: [Competitor], OD450 tau, K18 tau to be by 4 normalized CSP [((δN/5) +γH ); ppm] 2 0.52 CSP (PPM) titration Hsp27) […]

[7] abbreviates: Fig. 4a, Boltzmann fit, mean ± SD of three independent experiments.

“Also recorded” adds a separate entry of the source. Ends that are not written are not given here.

T3 sequence (P04792 80-205 I181G/V183G limits assumed): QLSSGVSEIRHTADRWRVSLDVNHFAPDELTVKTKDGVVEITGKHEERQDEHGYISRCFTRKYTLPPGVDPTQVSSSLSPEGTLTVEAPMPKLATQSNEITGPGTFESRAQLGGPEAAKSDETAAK

For the substance “3D: pseudo-phosphorylation mutant; S15, S78 and S82 replaced with aspartate”, the “Binding to 15N K18 tau by NMR (peak broadening / CSPs)” value (“Binding … (peak broadening / CSPs)” below) with K18 tau [1] is given as “binds to K18’s aggregation motifs”. Also, the “Effect on aggregation of 0N4R tau (ThT fluorescence)” value (“Effect on aggregation of 0N4R tau” for short) in the data set with 0N4R tau was “retains the ability to prevent tau aggregation”. Further, the TM in data set [2] (Supplementary Figure 8A) turned out to be 72.2 ± 0.85 °C.
For L157A ACD: Hsp27 ACD mutant L157A, the BAG3 binding entry with BAG3 was “deficient in BAG3 binding”.
With EIAIPVTHE [T180A], the “N (binding stoichiometry)” value on Hsp27 ACD [3] turned out to be 0.65.
For the substance “VQIVYK [PHF6* peptide, 6-mer PHF6* peptide from tau]”, the figures for the “Binding to Hsp27 ACD by NMR titration (chemical shift changes)” value at Hsp27 ACD [4] and on Hsp27 ACD [4] (listed as VQIVYK peptide) were “unable to produce saturable chemical shift changes” and “weak interaction; also recorded: weak/no”, respectively.
For the substance “GPG: Hsp27 with isoleucine and valine of the IPV mutated to glycine”, in the data set with K18 tau [1], the “Binding … (peak broadening / CSPs)” value was “bound to K18”. In data set [2] (setting [7]), the TM turned out to be 66.8 ± 0.3 °C.
Take “Hsp27 X: WT Hsp27 cross-linked with gluteraldehyde”: the “Effect on aggregation of 0N4R tau” value in the data set with 0N4R tau was “severely compromised”. Besides, the “Effect on aggregation of K18 tau (ThT fluorescence)” value (“Effect on aggregation of K18 tau” below) with K18 tau [5] is on record as “severely compromised”.
WT: full-length human Hsp27: the “Binding … (peak broadening / CSPs)” value was “does not” in the data set on K18 tau [1] and “no broadening or CSPs” in the data set on K18 tau [1] (listed as full-length Hsp27). Moreover, in the data set with 0N4R tau, the “Effect on aggregation of 0N4R tau” value is “prevents aggregation”. Also, the “Effect on aggregation of K18 tau” value in the data set with K18 tau [5] is recorded as “prevents aggregation”. The TM is 73.1 ± 1.1 °C in data set [2] (setting [7]) and 72.2 ± 1.0 °C in [2] (Supplementary Figure 8A).
Regarding EITIPVTHE [Hsp27 IPV H], the Kd entry on Hsp27 WT is “does not bind”; on ΔNTD GPG it was 14.3 µM; at Hsp27 3D it was > 50 µM.
For the substance “ΔNTD: Hsp27 with NTD deleted, residues 80–205”, the “Effect on aggregation of 0N4R tau” value with 0N4R tau was “ablated Hsp27’s ability to delay tau aggregation”. In the data set on K18 tau [5], the “Effect on aggregation of K18 tau” value was “ablated Hsp27’s ability to delay tau aggregation”.
For “Hsp27 ACD: α-crystallin domain of human Hsp27 (residues Q80–S176)”, in the data set on K18 tau [1], the “Binding … (peak broadening / CSPs)” value is “weak and unsaturable”. Also, in the data set with 0N4R tau, the “Effect on aggregation of 0N4R tau” value is given as “no effect”. In addition, the “Effect on aggregation of K18 tau” value with K18 tau [5] is on record as “no effect”. For the same substance, in the data set with K18 tau [6], the IC50 is > 100 µM.
For the substance EITIPVTFE [Hsp27 IPV], the “N (binding stoichiometry)” value at Hsp27 ACD [3] came out at 0.90. Besides, the Kd at Hsp27 ACD [3] (peptide (1 mM) titrated into Hsp27 ACD (100 µM), SEC buffer (50 mM sodium phosphate, 100 mM NaCl), mean ± SEM, minimum of three independent experiments, ND = no detectable binding) was > 25 µM.

As usually defined, the Kd is a measure of binding affinity in units of concentration. Low readings indicate higher affinity, high ones lower affinity. Broadly, the IC50 is the concentration that gives 50% inhibition.
